This note sets out measurements from patent publication EP2644601A1, “Compounds with matrix-metalloproteinase inhibitory activity and imaging agents thereof” (Westfälische Wilhelms-Universität Münster, priority 2012, dated 2013).

Holding throughout (format): biochemical
The target of assay [1] is T1, MMP-2 (Homo sapiens, UniProt P08253).
T1 sequence (P08253 110-660): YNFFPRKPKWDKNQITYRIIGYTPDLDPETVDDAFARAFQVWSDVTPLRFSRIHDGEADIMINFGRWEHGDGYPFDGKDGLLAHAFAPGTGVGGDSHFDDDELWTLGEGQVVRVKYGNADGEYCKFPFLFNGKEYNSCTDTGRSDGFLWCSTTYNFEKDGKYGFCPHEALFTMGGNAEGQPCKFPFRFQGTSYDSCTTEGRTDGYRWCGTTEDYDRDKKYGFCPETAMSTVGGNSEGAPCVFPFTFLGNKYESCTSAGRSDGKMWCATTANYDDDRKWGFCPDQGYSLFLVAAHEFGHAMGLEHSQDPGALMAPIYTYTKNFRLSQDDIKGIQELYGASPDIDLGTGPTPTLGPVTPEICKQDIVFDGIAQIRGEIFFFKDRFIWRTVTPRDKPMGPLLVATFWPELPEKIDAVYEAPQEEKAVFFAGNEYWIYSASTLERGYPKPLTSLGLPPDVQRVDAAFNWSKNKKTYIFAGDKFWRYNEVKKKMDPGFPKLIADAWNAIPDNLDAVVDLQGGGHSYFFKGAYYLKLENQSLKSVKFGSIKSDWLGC
In words: MMP compound screening with Fluorimetric SensoLyte 390 Generic MMP Activity Kit, recombinant MMP-2. The protocol:
(§1) The activities were determined using Fluorimetric SensoLyte® 390 Generic MMP Activity Kit from Anaspec (cat # 72202). This assay kit can detect the activity of several MMPs such as MMP-1, 2, 7, 8, 9, 13, 14,15,16 and 24.
(§2) For screening MMP compounds, activated 2 nM of recombinant MMP-2, 8, 9 or 13 are pre-incubated with MMP compound (inhibitor) for 30 min at 37°C. The substrate is added and the inhibition of MMP activity is expressed as % of total activity (without the inhibitor incubation).

Assay [2] has as its target MMP-8 (Homo sapiens, UniProt P22894). In words: MMP compound screening with Fluorimetric SensoLyte 390 Generic MMP Activity Kit, recombinant MMP-8. The protocol: as §1, §2
In assay [3] the target is MMP-9 (Homo sapiens, UniProt P14780). Description: MMP compound screening with Fluorimetric SensoLyte 390 Generic MMP Activity Kit, recombinant MMP-9. The procedure: as §1, §2
Sequence of MMP-9 (P14780 107-707 limits assumed, species assumed): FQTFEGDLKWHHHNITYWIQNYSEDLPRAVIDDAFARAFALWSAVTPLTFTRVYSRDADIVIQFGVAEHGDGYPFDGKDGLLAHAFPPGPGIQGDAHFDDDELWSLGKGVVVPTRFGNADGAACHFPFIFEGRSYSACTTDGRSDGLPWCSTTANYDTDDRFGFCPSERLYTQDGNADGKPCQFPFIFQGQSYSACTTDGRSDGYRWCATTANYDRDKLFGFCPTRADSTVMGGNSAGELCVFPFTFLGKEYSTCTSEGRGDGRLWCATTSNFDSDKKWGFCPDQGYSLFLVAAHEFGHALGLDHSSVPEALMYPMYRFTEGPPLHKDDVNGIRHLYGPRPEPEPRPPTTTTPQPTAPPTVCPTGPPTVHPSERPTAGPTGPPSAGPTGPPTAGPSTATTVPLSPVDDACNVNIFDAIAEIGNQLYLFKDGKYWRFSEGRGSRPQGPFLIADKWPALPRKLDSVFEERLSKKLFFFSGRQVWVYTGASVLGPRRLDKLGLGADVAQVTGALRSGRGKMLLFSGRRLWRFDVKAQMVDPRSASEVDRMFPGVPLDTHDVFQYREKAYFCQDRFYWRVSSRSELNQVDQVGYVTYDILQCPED
Assay [4] addresses MMP13 (Homo sapiens, UniProt P45452). Description: MMP compound screening with Fluorimetric SensoLyte 390 Generic MMP Activity Kit, recombinant MMP-13. The procedure: as §1, §2

Sequence of MMP-8 (P22894 101-467, species assumed): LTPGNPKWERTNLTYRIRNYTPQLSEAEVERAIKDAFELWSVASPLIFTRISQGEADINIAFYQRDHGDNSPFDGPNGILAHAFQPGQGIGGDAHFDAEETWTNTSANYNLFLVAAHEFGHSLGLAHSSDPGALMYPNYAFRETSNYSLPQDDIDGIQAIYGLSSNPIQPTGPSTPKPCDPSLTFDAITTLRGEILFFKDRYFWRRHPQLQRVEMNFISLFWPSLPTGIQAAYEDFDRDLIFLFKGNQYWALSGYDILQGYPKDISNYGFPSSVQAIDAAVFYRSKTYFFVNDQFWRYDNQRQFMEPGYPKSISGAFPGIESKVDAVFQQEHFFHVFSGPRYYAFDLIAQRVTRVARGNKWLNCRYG

`CCN1/C(=C/C=C/C=C/C2=[N+](CCCCCC(N)=O)c3ccc4c(S(=O)(=O)O)cc(S(=O)(=O)O)cc4c3C2(C)C)C(C)(C)c2c1ccc1c(S(=O)(=O)[O-])cc(S(=O)(=O)O)cc21` [Cy5.5]: the inhibition (usually how much of the control response was suppressed) at 0.1 µM in assay [1] (0.1uM) came to 0%; in assay [2] (0.1uM), 0%; in assay [3] (0.1uM), 12%; in assay [4] (0.1uM), 0%. In addition, the inhibition at 1 µM in assay [1] (1uM) was found to be 0%; in assay [2] (1uM) it was 1%; in assay [3] (1uM) it was 17%; in assay [4] (1uM), 7%.
